Experimental data taken from patent US6235493A, “Amino acid substituted-cresyl violet, synthetic fluorogenic substrates for the analysis of agents in individual in vivo cells or tissue” (priority 1998, dated 2001).
“Also recorded” adds a separate entry of the source. Starred links: 1 amine or outer side, 2 acyl side, 3 side chain; linkers in the order of their positions; H or OH if unused. Non-standard residues stand in square brackets, D forms with d. Residues, ends and D or L forms follow the SMILES beside them. *: point of attachment. hPhe = N[C@@H](CCc1ccccc1)C(=O)O; Morpholide = C1CN(*)CCO1; CO = O=C([*:1])[*:2]; CH2F = FC*

What was measured:
[1] = target: cathepsin B (Rattus norvegicus, UniProt P00787); assay: Cathepsin B activity in living CC531 colon cancer cells (CSLM, (Z-Arg)^2 -cresyl violet); type: cell-based
Procedure: An established rat colon carcinoma cell line, CC531, was used for all experiments. The parental cell line was obtained from a 1,2-dimethylhydrazine-induced moderately differentiated and weakly immunogenic colon adenocarcinoma in WAG-Rij rats (44). Cells were cultured in vitro at 37° C. as monolayers in Dulbecco's modification of Eagle's medium (ICN Biomedicals, Irvine, Ayrshire, UK) supplemented with 10% (w/v) fetal bovine serum, 2 mM glutamine, 100 IU penicillin/ml and 100 μg streptomycin/ml. Cells were washed in PBS and, after detachment by scraping and centrifugation (250 g, room temperature, 10 min), a single cell suspension at a final concentration of 1×10^6 cancer cells in 50 μl of PBS was obtained with a viability of at least 95% (45,46). Cell suspension were either used for cytochemical purposes or for in vivo administration to induce metastases in the liver.
Cathepsin B activity was detected in real-time in living CC531 cells and freshly prepared living rat hepatocytes after isolation by collagenase perfusion of livers of male mature rats after 24 h of starvation (47). At time point zero, cell preparations were diluted 20-fold in PBS containing either 10 μM (Z-Arg)^2 -cresyl violet (Enzyme Systems Products, Dublin, Calif.) as fluorogenic substrate for cathepsin B (48) or 10 μM substrate and 20 μM FMK (Protek, Dublin, Calif.), as selective cathepsin B inhibitor (40,41). The fluorogenic substrate is not fluorescent but after proteolytic cleavage, liberated cresyl violet is fluorescent. Synthesis of the substrate is described elsewhere in Ref. 48. The substrate was dissolved first in dimethyl formamide (final concentration in the incubation medium was 1% (v/v)). An aliquot of 100 μl of the cell suspensions was brought into a well formed by a stainless steel ring attached to a glass slide (49). Images of cells were captured in real-time with a Leica CSLM fitted to a Leica Fluovert inverted microscopic equipped with a PL APO oil-immersion objective (×63, NA 1.40). Excitation was performed at a wavelength of 560 nm and fluorescence was captured at greater than 580 nm. Excitation with the use of green light is harmless to living cells. The pinhole aperture was set at 100 giving an optimized image (50). With fixed pinhole, filter combination and a laser power setting adjusted to give minimal fading, the photomultiplier gain and photometric offset were optimized. Cells were subjected to optical serial sectioning after each 60 s of incubation up to 300 s. Images in the X-Y plane were recorded with intervals of 0.5 μm in the Z direction. For analysis, each optical section was averaged eight times. Images were recorded in a 512×512 pixel format. The size of each pixel represented 0.015 μm^2 in the object. […]

[2] = cited from earlier work

cathepsin B, sequence (P00787 80-333): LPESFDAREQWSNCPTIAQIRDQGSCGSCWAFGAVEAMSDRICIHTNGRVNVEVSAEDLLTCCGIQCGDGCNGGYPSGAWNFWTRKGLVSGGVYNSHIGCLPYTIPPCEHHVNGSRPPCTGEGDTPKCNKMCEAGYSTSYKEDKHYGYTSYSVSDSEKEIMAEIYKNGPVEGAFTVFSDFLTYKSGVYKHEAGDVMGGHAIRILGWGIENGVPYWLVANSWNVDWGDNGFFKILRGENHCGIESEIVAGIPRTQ

O=C(CF)[C@H](CCc1ccccc1)NC(=O)[C@H](Cc1ccccc1)NC(=O)N1CCOCC1 [FMK, Mu-Phe-homoPhe-fluoro-methylketone] ({Morpholide-CO}-Phe-[hPhe]-CH2F)
inhibition of intracellular cathepsin B activity ([1]; CC531 cells, 20 μM FMK): not intracellular cathepsin B activity; also recorded: Activity was present intracellularly
inhibition of plasma membrane-bound (extracellular) cathepsin B activity ([1]; CC531 cells, 20 μM FMK, 10 μM (Z-Arg)^2 -cresyl violet, 5 min, room temperature): inhibited only extracellular; also recorded: inhibited the plasma membrane-bound activity completely; also recorded: Plasma membrane-bound activity was inhibited
uptake by living cells ([1]; inferred from lack of inhibition of intracellular activity): had not been taken up by the living cells
water solubility [2]: water-soluble
